Test results reported in paper PMC4010497, “Synthesis and Evaluation of Fluorine-Substituted Phenyl Acetate Derivatives as Ultra-Short Recovery Sedative/Hypnotic Agents” (PLoS ONE, 2014).
Like-named read-outs stand apart in the source and are kept apart here.

Legend:
[1] = tested on: mice; assay: animal or person; type: in vivo; details: for ED50: Mus musculus
Protocol: (§1) All tests were performed during the light period. Groups of mice, rats and rabbits were injected intravenously (lateral tail vein) over 10 s with each dose of test compound, placed in separate boxes to reduce external stimuli and assessed for the loss of righting reflex. Dosing was performed using mg/kg scheme. A set of dose levels was chosen, and depending on whether the loss of righting reflex was observed, extra doses were introduced to provide data for the loss of righting reflex over a narrow dose range to allow potency calculations. From the percentage of mice, rats and rabbits in each group showing loss of righting reflex for ≥30 s, a probit analysis (SAS Institute) was performed to obtain an HD50 for each compound with 95% confidence limits.
(§2) Immediately following the injection, the mice, rats and rabbits were tested for loss of righting reflex. […] Once a loss was observed, the interval between the loss of righting reflex and the return to righting reflex was recorded. The anesthetized animals recovered righting reflexes spontaneously. To compare the duration of LORR of each compound at equipotent doses, groups of mice, rats and rabbits were injected with each compound at 2× HD50 over 10 s.
(§3) Time to walk was the time required after righting before mice and rabbits walked from the center to the periphery of a 30-cm diameter dise.
(§4) The rotarod test was conducted to evaluate the recovery to the motor coordination. Before the LORR test, mice were trained for 2 consecutive days. Trained mice could maintain their balance on rod for more than 2 mins. After the mice could walk from the center to the periphery of a 30-cm diameter dise, they were put on the rotarod. Mice were classified as behavioral recovery when, on being placed on the rod, they could maintain their balance for 20 s. The time to behavioral recovery was the time required after mice walked from the centre to the periphery of a 30-cm diameter disc before they could maintain their balance on rod for 20 s.

[2] = tested on: rabbits; assay: Hypnosis in response to IV infusion in rabbits; type: in vivo, rabbit; details: for time to walk after infusion: 20-min IV infusion; for duration of LORR after cessation of infusion: 20-min IV infusion at half the HD50 per min after 2× HD50 induction
Protocol: Induction of hypnosis in rabbits was achieved using 2× HD50 dose of test compound, and immediately after induction, infusion via the tail vein was commenced at half the HD50 dosage per min. the infusion rate was maintained for 20 min or 1 h or 3 h later. The depth of hypnosis was monitored by the magnitude of a withdrawal reflex to intermittent paw pinch provided by a pair of forceps.

[3] = tested on: rat; type: in vivo; details: for HD50: IV, 95% confidence limits
Protocol: as §1, §2, §3, §4

[4] = tested on: rabbits; assay: Hypnotic potency and recovery after IV bolus in rabbits; type: in vivo, rabbit; details: for Duration of LORR / Time to walk: 2× HD50 dose, mean ± SD; for HD50: IV, 95% confidence limits
Protocol: as §1, with “calculations.” for “calculations. From the percentage of mice, rats and rabbits in each group showing loss of righting reflex for ≥30 s, a probit analysis (SAS Institute) was performed to obtain an HD50 for each compound with 95% confidence limits.”
as §2, with “The anesthetized animals recovered righting reflexes spontaneously.” left out
as §3

[5] = tested on: rat; assay: Therapeutic index (LD50/HD50) in rat; type: in vivo
Protocol: (§5) The LD50 was determined in mice, rats, and rabbits and the TI was calculated as LD50/HD50.

[6] = in vivo; details: mouse, in vivo; mice, 95% confidence limits
Protocol: as §5

[7] = target: T1, human GABAA receptor α1, β2 and γ2 (CHO-K1 cells) (Homo sapiens, UniProt P14867+P18507+P47870); assay: cell-based
T1 construct: expressed in transfected cells; host or cells: CHO-K1 cells, stably transfected
Protocol: Chinese hamster ovary (CHO)-K1 cells transfected stably with human GABAA receptor α1, β2 and γ2 subunit cDNAs were used. The cells were plated onto collagen-coated 35-mm cell culture dishes at low density for 1–7 days before recording. Test solutions were prepared in the extracellular solution on the day the patch-clamp assay was performed. The intracellular solution consisted of 22 mM KCl, 110 mM K-aspartate, 8 mM NaCl, 1 mM MgCl2, 1 mM CaCl2, 10 mM ethylene glycol tetraacetic acid, 5 mM Na2ATP, 10 mM hydroxyethyl piperazineethanesulfonic acid (HEPES) (adjusted to pH 7.2 using KOH), while the extracellular solution contained 145 mM NaCl, 4 mM KCl, 2 mM CaCl2, 2 mM MgCl2, 10 mM HEPES (adjusted to pH 7.4 using NaOH). The assay was performed at room temperature. Cells were maintained at −70 mV and the potentiation effect was assessed by co-application of the test compound with EC20 of muscimol after the cell was pre-incubated with the test compound for 45 s. GABA EC20 measured individually in each cell. The amplitude of the Cl− current in response to muscimol and/or test compound was determined. The response to the co-application of the test compound and muscimol was normalized to the control muscimol response as a percentage of the control. A potentiation effect was indicated by a value >100% of the control response. EC50 values were calculated using the four parameter logistic equation, where E was the amplitude of the muscimol-induced current in the presence of the anesthetic at concentration [A], EMAX was the amplitude of the response in the presence of a maximally effective concentration of the anesthetic, EC50 was the concentration of anesthetic producing a half-maximal enhancement of the muscimol-induced response and nH was the Hill coefficient. [drawing 1]

[8] = In vitro metabolic half-life in rabbit whole blood; type: in vitro ADME; details: male, New Zealand White rabbit (n = 3), 37°C, read-out: Mean t1/2 Value
Protocol: (§6) Human whole blood stability experiments were conducted in whole blood from four human donors (male, 18–25 years). Single experiments were conducted with pooled blood from Sprague-Dawley rats (male, 8 weeks, n = 3), New Zealand White rabbits (male, 8–10 weeks, n = 3), Beagle dogs (male, 2–3 years, n = 3) and Cynomolgus monkeys (male, 3–4 years, n = 3). All the blood samples were provided by Xuzhou Medical College. A 1.35-ml aliquot of blood was warmed at 37°C for 5 min and hypnotic (from a 40 mM stock in DMSO solution) was added to a final concentration of 200 µM. After the specified incubation time, a 150-µl sample was removed and the metabolic reaction was quenched using 150-µl acetonitrile. Zero time-point samples were prepared by adding 150-µl acetonitrile (using a 4 mM stock in DMSO) to 150-µl blood before addition of the hypnotic. The quenched samples were centrifuged, and the supernatant was separated and stored at −20°C until analyzed. Hypnotic concentrations in thawed samples were determined by high-performance liquid chromatography using a 3-µm phenyl 4.6×50-mm C-A-25, ACE column with the UV detector set at 240 nm. […] The lower limit of quantitation of this assay is 3 µM and the accuracy within 15% at 10 µM. The metabolic half-lives were quantified from the incubation time-dependent change in drug concentration.

[9] = In vitro metabolic half-life in rat whole blood; type: in vitro ADME; details: male, Sprague-Dawley Rat (n = 3), 37°C, read-out: Mean t1/2 Value
Protocol: as §6

[10] = tested on: GABAA receptor; assay: GABAA radioligand binding assay ([3H]EBOB); details: 50 µM compound, 0.5 nM [3H]EBOB, rat frontoparietal cortex
Protocol: All the new compounds were dissolved in 5% DMSO.
Specific binding was determined in the presence of compounds.
Membrane suspensions were thawed and centrifuged in incubation buffer at 10,000×g for 10 min and washed by a similar centrifugation. For displacement studies, membrane suspensions (5 mg original wet wt./ml) were incubated with 0.5 nM [^3H]EBOB ([…], Perkin Elmer Life Sciences, Boston, MA, USA) in the absence or presence of 50 µM of new compounds or reference drug for 2 h at 25°C. Nonspecific binding was determined in the presence of 10 µM Bicuculline. Bicuculline and picrotoxin were frequently used to determine the nonspecific binding when [3H]EBOB as radioligand [17]. Triplicate 1 ml samples were filtered on Whatman GF/B filters under vacuum with a Brandel Harvester and washed with 3×3 ml ice-cold buffer.

[11] = tested on: rabbits; assay: Therapeutic index (LD50/HD50) in rabbits; type: in vivo, rabbit
Protocol: as §5

[12] = target: T1, human GABAA receptor α1, β2 and γ2 (CHO-K1 cells); design: method as in PMID 22531340; details: GABAA receptor electrophysiology; cited from earlier work
[13] = In vitro metabolic half-life in monkey whole blood; type: in vitro ADME; details: male, Cynomolgus monkey (n = 3), 37°C, read-out: Mean t1/2 Value
Protocol: as §6

[14] = tested on: mice; assay: in vivo; details: LD50/HD50
Protocol: as §5

[15] = Octanol:water partition coefficient; type: physicochemical; details: water buffered with 10 mm Tris (pH 7.4)
Protocol: One mg of each hypnotic was added to 10 ml of water buffered with 10 mm Tris (pH 7.4) and 1 ml of octanol. The mixture was stirred overnight and then centrifuged to fully separate the organic and aqueous phases. The relative hypnotic concentration in each phase (i.e., the partition coefficient) was determined by high-performance liquid chromatography as described for blood.

[16] = In vitro metabolic half-life in dog whole blood; type: in vitro ADME, Beagle dog; details: male; whole blood, Beagle dog (n = 3), 37°C, 200 µM; read-out: Mean t1/2 Value
Protocol: Human whole blood stability experiments were conducted in whole blood from four human donors (male, 18–25 years). Single experiments were conducted with pooled blood from Sprague-Dawley rats (male, 8 weeks, n = 3), New Zealand White rabbits (male, 8–10 weeks, n = 3), Beagle dogs (male, 2–3 years, n = 3) and Cynomolgus monkeys (male, 3–4 years, n = 3). All the blood samples were provided by Xuzhou Medical College. A 1.35-ml aliquot of blood was warmed at 37°C for 5 min and hypnotic (from a 40 mM stock in DMSO solution) was added to a final concentration of 200 µM. After the specified incubation time, a 150-µl sample was removed and the metabolic reaction was quenched using 150-µl acetonitrile. Zero time-point samples were prepared by adding 150-µl acetonitrile (using a 4 mM stock in DMSO) to 150-µl blood before addition of the hypnotic. The quenched samples were centrifuged, and the supernatant was separated and stored at −20°C until analyzed. Hypnotic concentrations in thawed samples were determined by high-performance liquid chromatography using a 3-µm phenyl 4.6×50-mm C-A-25, ACE column with the UV detector set at 240 nm. A linear gradient 20–45% acetonitrile in water with 0.05% trifluoroacetic acid was run for more than 20 min at a flow rate of 1 ml/min. The lower limit of quantitation of this assay is 3 µM and the accuracy within 15% at 10 µM. The metabolic half-lives were quantified from the incubation time-dependent change in drug concentration.

[17] = In vitro metabolic half-life in human whole blood; type: in vitro ADME; details: male, Human (n = 4), 37°C, read-out: Mean t1/2 Value
Protocol: as §6

[18] = mice, IV over 10 s, 95% confidence limits, read-out: HD50 (the source's name)
[19] = mice, IV 2× HD50, mean ± SD (n = 10)

T1 sequence (P14867 28-456): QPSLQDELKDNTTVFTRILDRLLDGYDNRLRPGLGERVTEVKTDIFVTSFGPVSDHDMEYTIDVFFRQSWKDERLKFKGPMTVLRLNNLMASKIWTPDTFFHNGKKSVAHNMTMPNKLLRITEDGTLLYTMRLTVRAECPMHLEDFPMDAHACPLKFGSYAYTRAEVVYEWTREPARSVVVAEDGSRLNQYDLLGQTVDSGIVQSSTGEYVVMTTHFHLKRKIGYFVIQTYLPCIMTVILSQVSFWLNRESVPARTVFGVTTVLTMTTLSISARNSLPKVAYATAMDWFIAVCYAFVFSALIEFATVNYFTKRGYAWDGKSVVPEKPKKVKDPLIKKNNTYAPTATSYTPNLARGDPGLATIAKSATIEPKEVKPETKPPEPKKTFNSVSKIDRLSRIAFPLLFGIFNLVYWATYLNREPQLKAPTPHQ
T1 sequence (P47870 25-512 limits assumed): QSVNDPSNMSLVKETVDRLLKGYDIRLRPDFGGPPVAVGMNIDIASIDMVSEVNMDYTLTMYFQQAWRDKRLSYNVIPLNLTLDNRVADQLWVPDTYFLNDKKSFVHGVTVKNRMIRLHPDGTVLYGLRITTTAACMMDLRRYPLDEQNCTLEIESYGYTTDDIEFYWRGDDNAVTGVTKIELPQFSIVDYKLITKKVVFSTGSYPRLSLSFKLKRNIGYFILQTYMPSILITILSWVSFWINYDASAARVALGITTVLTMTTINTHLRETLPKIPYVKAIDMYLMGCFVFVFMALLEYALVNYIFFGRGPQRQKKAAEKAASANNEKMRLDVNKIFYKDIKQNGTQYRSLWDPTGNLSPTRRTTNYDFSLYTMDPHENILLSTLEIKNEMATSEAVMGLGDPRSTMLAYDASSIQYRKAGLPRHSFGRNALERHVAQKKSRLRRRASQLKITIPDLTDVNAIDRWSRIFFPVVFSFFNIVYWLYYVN
T1 sequence (P18507 40-475): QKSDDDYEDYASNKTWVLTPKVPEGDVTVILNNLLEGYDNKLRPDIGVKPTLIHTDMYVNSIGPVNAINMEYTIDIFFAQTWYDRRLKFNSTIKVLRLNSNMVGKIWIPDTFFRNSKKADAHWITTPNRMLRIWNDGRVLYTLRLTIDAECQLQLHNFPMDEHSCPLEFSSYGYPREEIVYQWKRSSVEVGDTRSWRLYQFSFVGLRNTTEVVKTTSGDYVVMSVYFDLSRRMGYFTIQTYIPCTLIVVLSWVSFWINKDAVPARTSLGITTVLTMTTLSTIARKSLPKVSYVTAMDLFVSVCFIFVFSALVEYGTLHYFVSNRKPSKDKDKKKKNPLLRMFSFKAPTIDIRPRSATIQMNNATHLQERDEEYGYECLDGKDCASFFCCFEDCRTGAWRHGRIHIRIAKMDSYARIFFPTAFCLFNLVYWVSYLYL

SMILES | time to walk after infusion [2] [s] | duration of LORR after cessation of infusion [2] [s] | HD50 [3] | Duration of LORR [4] [s] | Time to walk [4] [s] | HD50 [4] | TI [5] | LD50 [6] [mg/kg] | ED50 [1, 18] [mg/kg] | Time to walk ([1]; mice, 2× HD50) [s] | time to behavioral recovery ([1]; mice, 2× HD50, rotarod) [s] | Duration of LORR [1, 19] [s] | Onset time ([1]; mice, IV, mean ± SD (n = 10)) [s] | GABAA binding (50 µmol) (Mean ± SD), percentage of inhibition [10] [%] | Duration of LORR ([3]; 2× HD50 dose, mean ± SD) [s] | Time to walk ([3]; 2× HD50 dose, mean ± SD) [s] | time to behavioral recovery ([3]; 2× HD50 dose, mean ± SD) [s] | TI [11] | TI [14] | Octanol:Water Partition (Coefficient ± SD) [15] | other results
CC(C)c1cccc(C(C)C)c1O [Propofol] | 167.9 ± 60.8 | 485.6 ± 164.1 | 5.2 (4.5∼5.7) mg/kg | 326.6 ± 48.3 | 425.3 ± 162.3 | 3.2 (2.3∼4.2) mg/kg | 5.9 | 64.4 | – | – | – | – | – | – | – | – | – | – | – | – | ED50 ([1]; iv, read-out: HD50): 11.9 mg/kg; Time to walk ([1]; mouse, in vivo): 76.5 ± 42.5 s; time to behavioral recovery ([1]; mouse, in vivo): 242.7 ± 119.2 s; Duration of LORR ([1]; mouse, in vivo, iv): 240.9 ± 93.7 s; Onset time ([1]; mouse, in vivo, iv): 8.1 ± 1.6 s; Duration of LORR ([3]; in vivo): 349.3 ± 93.3 s; Time to walk ([3]; in vivo): 286.5 ± 86.5 s; time to behavioral recovery ([3]; in vivo): 335.8 ± 156.9 s; EC50 [7]: 2.4 µM
CCCOC(=O)Cc1ccc(OCC(=O)N(CC)CC)c(OCC)c1 [AZD3043, reference compound] | 46.3 ± 11.2 | 135.6 ± 66.7 | 8.2 (7.7∼9.8) mg/kg | 221.6 ± 38.8 | 89.6 ± 7.6 | 4.8 (4.6∼5.6) mg/kg | 10.1 | 98.4 | 17.6 | 36.7 ± 6.4 | 65.5 ± 14.1 | 63.8 ± 8.5 | 5.6 ± 1.2 | 83.2±7.4 | 74.2 ± 10.5 | 38.4 ± 9.6 | 56.9 ± 12.5 | 15.6 | 6.0 | 466±54 | half-life at 200 µM [8]: 14.8 ± 3.3 min; half-life at 200 µM [9]: 0.6 ± 0.1 min; EC50 [12]: 36 µM; half-life at 200 µM [13]: 56.7 ± 11.9 min; half-life at 200 µM [16]: > 60 min; half-life at 200 µM [17]: 28.6 ± 6.2 min
CCCOC(=O)Cc1ccc(OCC(=O)N(CC)CC)c(OC)c1 [Propanidid] | 70.2 ± 14.9 | 246.6 ± 65.7 | 8.4 (7.8∼10.4) mg/kg | 265.4 ± 44.2 | 124.5 ± 24.8 | 5.1 (4.7∼5.7) mg/kg | 9.6 | 119 | 20.9 | 56.3 ± 23.5 | 83.9 ± 17.1 | 89.6 ± 18.2 | 6.7 ± 0.5 | 70.2±5.8 | 93.3 ± 16.1 | 58.7 ± 18.8 | 79.9 ± 34.6 | 14.7 | 5.6 | 394±40 | EC50 ([7]; GABAA (α1β2γ2) CHO-K1 cell, patch clamp, read-out: EC50, potentiation of EC20 muscimol evoked chloride currents): 25.2 µM
